Calls of active or inactive are those of the source. The rule behind the calls is not given here.
Legend:
Assay type in all cases: functional, cell-based
Details in all cases: Homo sapiens
HT-29 [1] = test: Cytotoxicity against HT29 cell line
HT-29 [2] = test: Cytotoxicity against HT29 cells in hypoxic condition after 5 hrs
HT-29 [3] = test: Cytotoxicity against HT29 cells in presence of Escherichia coli nitroreductase

Structure (SMILES) | IC50 (HT-29 [1]) | Activity (HT-29 [2]) | IC50 (HT-29 [3])
c1ccc(C2Nc3ccc4cc5ccccc5nc4c3CO2)cc1 (stereo not given) | 400 nM |  | 
c1ccc2nc3c4c(ccc3cc2c1)NCOC4 | 2250 nM |  | 
BrCC1Nc2ccc3cc4ccccc4nc3c2CO1 (stereo not given) | 1250 nM |  | 
O=[N+]([O-])c1ccc(C2Nc3ccc4cc5ccccc5nc4c3CO2)cc1 (stereo not given) | 2300 nM | inactive | 200 nM
CC1Nc2ccc3cc4ccccc4nc3c2CO1 (stereo not given) | 600 nM |  | 
c1ccc(COCC2Nc3ccc4cc5ccccc5nc4c3CO2)cc1 (stereo not given) | 4000 nM |  | 
COc1cccc2c1C(=O)c1c(O)c3c(c(O)c1C2=O)C[C@@](O)(C(=O)CO)C[C@@H]3O[C@H]1C[C@H](N)[C@H](O)[C@H](C)O1 [DOXORUBICIN] | 2370 nM |  | 
ClCC1Nc2ccc3cc4ccccc4nc3c2CO1 (stereo not given) | 1250 nM |  | 

Source: ChEMBL document CHEMBL1148685, “3,4-Dihydro-1H-[1,3]oxazino[4,5-c]acridines as a new family of cytotoxic drugs” (Bioorg Med Chem Lett, 2006)
